Experimental data published in ChEMBL document CHEMBL3259735, “Designing bifunctional NOP receptor-mu opioid receptor ligands from NOP-receptor selective scaffolds. Part II” (Bioorg Med Chem, 2014).
The source made the active and inactive calls. The calls are words filed in the database; no cut-off is given here.

Tests used:
Mus musculus [1] = test: Toxicity in ICR mouse assessed as rewarding effect by measuring increase in time spent in drug-paired compartment at 10 mg/kg, sc administered every 2 days for 6 days measured 24 hrs post last dose by conditioned place preference assay; format: organism-based; parameters: dose 10 mg/kg, route subcutaneous; conditions: in vivo
Mus musculus [2] = test: Antinociceptive activity in ICR mouse assessed as thermal-stimulus induced tail flick latency at 3 to 10 mg/kg, sc measured up to 4 hrs relative to control; format: functional, organism-based
Mus musculus [3] = test: Toxicity in ICR mouse assessed as increase in global effect at 10 mg/kg, sc administered every 2 days for 6 days measured 24 hrs post last dose during conditioning training; format: organism-based; parameters: dose 10 mg/kg, route subcutaneous; conditions: in vivo
Mus musculus [4] = test: Toxicity in ICR mouse assessed as effect on global effect at 1 to 10 mg/kg, sc administered every 2 days for 6 days measured 24 hrs post last dose during conditioning training; format: organism-based; parameters: dose 1-10 mg/kg, route subcutaneous; conditions: in vivo
Mus musculus [5] = test: Toxicity in ICR mouse assessed as rewarding effect by measuring increase in time spent in drug-paired compartment at 1 to 10 mg/kg, sc administered every 2 days for 6 days measured 24 hrs post last dose by conditioned place preference assay; format: organism-based; parameters: dose 1-10 mg/kg, route subcutaneous; conditions: in vivo

## CN1CC[C@]23c4c5ccc(O)c4O[C@H]2[C@@H](O)C=C[C@H]3[C@H]1C5 [MORPHINE]
Mus musculus [1]
  Activity: Toxic
Mus musculus [2]
  Activity: Active
Mus musculus [3]
  Activity: Toxic

## CCC1C(=O)N(C2CCN([C@H]3CC[C@@H]4CCCc5cccc3c54)CC2)c2ccccc21 (mixture of isomers)
Mus musculus [4]
  Activity: Non-toxic
Mus musculus [5]
  Activity: Non-toxic
